Test results as given in publication PMC8667925, “New 1,2,4-oxadiazole derivatives with positive mGlu4 receptor modulation activity and antipsychotic-like properties” (Journal of Enzyme Inhibition and Medicinal Chemistry, 2021).
“Also recorded” adds a separate entry of the source.

Tests used:
Albino Swiss mice = assay: modified stress-induced hyperthermia (SIH) in singly housed mice; format: in vivo
Experimental: The compounds were dissolved in a small amount of 100% EtOH and then adjusted with 20% cyclodextrin, and the pH was adjusted to 6.0. The investigated compounds were administered intraperitoneally (i.p.) 60 min before the behavioural test. Control drugs i.e. diazepam, clozapine and imipramine (Sigma–Aldrich, St. Louis, USA), were administered i.p. 60 min before the behavioural test. Cyclodextrin (20%) was used as a vehicle. All solutions were prepared immediately prior to the experiments and were administered at a constant volume of 10 ml/kg.
The procedure for modified stress-induced hyperthermia was adapted from Van der Heyden[93] and based on the procedure introduced by Borsini[94]. Each experimental group consisted of eight to ten animals. The animals were housed individually in a 26 × 21 × 14 cm Macolon cage 24 h before testing. For this assay, the body temperature was measured for each mouse at t = 0 min (T1) and t = +15 min (T2). Albino Swiss mice were placed into a new cage immediately following T1, with the difference in temperature (T2−T1) used as the measure of stress-induced hyperthermia. […] A comparison between T1 in vehicle-treated mice and those administered the test compound was used to determine whether the agent affects body temperature alone. Diazepam (5 mg/kg) was used as the positive control. The rectal temperature was measured to the nearest 0.1 °C with a Physitemp Theralert thermometer, TH-5, Clifton NJ, USA, with the temperature sensor for mice, Type T, Copper-Constantan Thermocouple, Braintree Scientific Inc. The lubricated thermistor probe (2 mm diameter) was inserted 20 mm into the rectum. The mouse was held at the base of the tail during this determination, and the thermistor probe was left in place until a constant reading was obtained for 15 s. The effects of the investigated compounds on the SIH response were investigated after administration of the compounds at doses of 5, 10 and 20 mg/kg.

[1] = test system: Salmonella typhimurium strains TA98 and TA100; format: cell-based; conditions: TA98 and TA100, with and without S9, ≤ 30 µM
Experimental: The primary assessment of the cardiotoxic risk and mutagenic potential of the six selected 1,2,4-oxadiazole derivatives was performed in the hERG channel assay and the mini-AMES test, respectively. The mutagenicity potential was determined in strains TA98 (frameshift mutation) and TA100 (base-pair substitution) of Salmonella typhimurium in the presence and absence of an exogenous metabolic activation system (rat liver S9 fraction) containing mammalian microsomal enzymes.
The Ames microplate fluctuation protocol (MPF) assay was performed with Salmonella typhimurium strains TA98 and TA100, […]. The bacterial strain as well as the exposure and indicator medium were obtained from Xenometrix AG (Allschwil, Switzerland). […] After the addition of indicator medium, each well of the 24-well plate was aliquoted into 48 wells of a 384-well plate.
The occurrence of reversion events to histidine prototrophy was observed as the growth of bacteria in the indicator medium without histidine after 72 h of incubation at 37 °C. Bacterial growth in 384-well plates was visualised by a colour change of medium from violet to yellow due to the addition of pH indicator dye. The absorbance was measured with a microplate reader (EnSpire) at 420 nm. The reference mutagen NQNO (0.5 mM) was used as a positive control in the experiments. The medium control baseline (MCB) was calculated, as derived from the mean number of revertants in the medium control plus one standard deviation.
AMES test was conducted with two Salmonella typhimurium strains TA98 and TA100 in the presence or absence of liver homogenate S9 to simulate the metabolic conversions of tested compounds with liver enzymes. The AMES MPF 98/100 assay from Xenometrix was performed as described by the supplier. Data were analysed with the AMES MPF calculation […]
(also on this page, place not known: TA10 cal culation TA98 - S9 Revertants TA98 + S9 Revertants - S9 Revertants TA100 + S9 Revertants TA98 - S9 Revertants TA98 + S9 Revertants TA100 - S9 Revertants 0 TA100 + S9 Revertants)

mGlu4 receptor = target: T1, mGlu4 receptor (Homo sapiens, UniProt Q14833); assay: forskolin-induced cAMP assay, agonist mode, T-REx 293 cells; format: cell-based
T1 construct: mGlu4 receptor NM_000841, mGlu7 receptor NM_000844.2, and mGlu8 receptor NM_000845; expressed in transfected cells; host or cells: T-REx 293
T1 sequence (Q14833 33-912): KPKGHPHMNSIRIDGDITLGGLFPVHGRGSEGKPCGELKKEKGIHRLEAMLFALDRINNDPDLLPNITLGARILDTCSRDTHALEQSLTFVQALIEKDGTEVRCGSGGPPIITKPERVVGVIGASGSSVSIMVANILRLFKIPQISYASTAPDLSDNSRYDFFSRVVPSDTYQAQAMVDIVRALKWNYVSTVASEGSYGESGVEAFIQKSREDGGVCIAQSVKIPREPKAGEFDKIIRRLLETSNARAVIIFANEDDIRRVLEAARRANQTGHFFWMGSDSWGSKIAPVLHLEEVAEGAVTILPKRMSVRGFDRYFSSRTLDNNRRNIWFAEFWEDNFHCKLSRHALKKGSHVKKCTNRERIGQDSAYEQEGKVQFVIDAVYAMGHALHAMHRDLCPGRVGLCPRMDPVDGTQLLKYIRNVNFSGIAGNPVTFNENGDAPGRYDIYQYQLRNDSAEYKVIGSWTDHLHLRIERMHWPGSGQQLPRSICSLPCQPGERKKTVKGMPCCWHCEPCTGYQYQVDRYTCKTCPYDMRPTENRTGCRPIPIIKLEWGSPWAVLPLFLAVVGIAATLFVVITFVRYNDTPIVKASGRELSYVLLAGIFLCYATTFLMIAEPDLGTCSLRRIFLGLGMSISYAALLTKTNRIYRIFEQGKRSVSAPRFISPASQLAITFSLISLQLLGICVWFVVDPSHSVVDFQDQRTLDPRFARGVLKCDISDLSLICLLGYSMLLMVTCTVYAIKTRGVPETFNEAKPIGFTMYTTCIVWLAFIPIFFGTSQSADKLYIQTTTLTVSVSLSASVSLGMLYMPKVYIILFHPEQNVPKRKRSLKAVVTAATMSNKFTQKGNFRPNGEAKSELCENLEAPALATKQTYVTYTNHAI
Experimental: The compounds were tested in the agonist, PAM (in the presence of EC20 concentration of L-Glu) or NAM (with EC80 of L-Glu) modes of forskolin-induced cAMP using T-REx 293 cells expressing the protein of a given receptor.
Determination of the intracellular cAMP through a homogeneous time-resolved fluorescence (HTRF) cAMP dynamic 2 kit from Cisbio (Codolet, France) was described previously by Chruścicka et al.[91]. Briefly, cells were grown in DMEM supplemented with 10% foetal bovine serum (FBS) (tetracycline free). Forty-eight hours before the experiments, mGlu receptor expression was induced by the addition of 0.75 µg/mL tetracycline. Twenty hours before the experiment, FBS and L-Glu were removed from the medium. Thereafter, the cells were scraped and centrifuged. A cell pellet was suspended in Hanks-HEPES (130 mM NaCl, 5.4 mM KCl, 1.8 mM CaCl2, 0.8 mM MgSO4, 0.9 mM NaH2PO4, 20 mM HEPES, and 3.25 mM glucose; pH 7.4). Then, the cell suspension was incubated in the presence of 10 µM forskolin (or 3 µM forskolin for mGlu7 receptor), the agonist L-glutamate and a compound for 5 min. Next, 10 µl of the cell suspension was mixed with 5 µl of cAMP-d2 conjugate and 5 µL of anti-cAMP cryptate conjugate. After 1 h of incubation at rt, the fluorescence at 620 nm and 665 nm was read (Tecan Infinite M1000). The results were calculated as the 665 nm/620 nm ratio multiplied by 10^4. Each sample was prepared in triplicate.

[2] = 5 mg/kg i.p., 60 min before test
[3] = 20 mg/kg i.p., 60 min before test
[4] = over the doses 5, 10 and 20 mg/kg i.p.
[5] = 10 mg/kg i.p., 60 min before test

Row | SMILES | effect on SIH response (Albino Swiss mice; [2]) | effect on SIH response (Albino Swiss mice; [3]) | effect on SIH response (Albino Swiss mice; [4]) | mutagenic activity (mini-AMES) [1] | effect on SIH response (Albino Swiss mice; [5]) | EC50 (mGlu4 receptor)
1 | O=C(Nc1ccc(-c2noc(-c3ccccc3Cl)n2)c(C(F)(F)F)c1)c1ccccn1 [Compound 60] | reduced the temperature increase caused by stress | reduced the temperature increase caused by stress | significant anxiolytic- and antipsychotic-like properties | no mutagenic potential |  | 
2 | COc1cc(NC(=O)c2ccccn2)ccc1-c1noc(-c2ccccc2Cl)n1 [Compound 34] | not effective | effective; also recorded: statistically significant reduction in SIH | significant anxiolytic- and antipsychotic-like properties | no mutagenic potential | effective; also recorded: statistically significant reduction in SIH | 1110 nM
3 | O=C(Nc1ccc(-c2noc(-c3ccccc3Cl)n2)c(Cl)c1)c1ccccn1 [Compound 52, N-(3-chloro-4-(5-(2-chlorophenyl)-1,2,4-oxadiazol-3-yl)phenyl)picolinamide] |  |  | significant anxiolytic- and antipsychotic-like properties; also recorded: significantly reduced SIH responses at all three doses; also recorded: at all doses significantly reduced the SIH response | no mutagenic potential |  | 
4 | COc1cc(NC(=O)c2ccccn2)ccc1-c1noc(-c2ccccc2F)n1 [Compound 37] |  |  | significant anxiolytic- and antipsychotic-like properties | no mutagenic potential | effective; also recorded: weak activity | 3940 nM
